In US20260021103A1, “IKZF2 AND CK1-ALPHA DEGRADING COMPOUNDS AND USES THEREOF” (President and Fellows of Harvard College, priority 2022, published 2026):

Legend:
[1] = target: T1, IKZF1 (Homo sapiens, UniProt Q13422+Q96SW2); assay: Flow cytometry for measuring degradation, HEK293T GFP-POI reporter cells (IKZF1); assay type: cell-based; conditions: for IKZF1% degradation at 100 nM / IKZF1% degradation at 1 μM: 24 h, HEK293T GFP reporter; for Dmax: HEK-293T, Table 3
T1 construct: expressed in transfected cells; host or cells: HEK293T (lentiviral transduction, puromycin selection, FACS sorting)
T1 sequence (Q13422 whole entry): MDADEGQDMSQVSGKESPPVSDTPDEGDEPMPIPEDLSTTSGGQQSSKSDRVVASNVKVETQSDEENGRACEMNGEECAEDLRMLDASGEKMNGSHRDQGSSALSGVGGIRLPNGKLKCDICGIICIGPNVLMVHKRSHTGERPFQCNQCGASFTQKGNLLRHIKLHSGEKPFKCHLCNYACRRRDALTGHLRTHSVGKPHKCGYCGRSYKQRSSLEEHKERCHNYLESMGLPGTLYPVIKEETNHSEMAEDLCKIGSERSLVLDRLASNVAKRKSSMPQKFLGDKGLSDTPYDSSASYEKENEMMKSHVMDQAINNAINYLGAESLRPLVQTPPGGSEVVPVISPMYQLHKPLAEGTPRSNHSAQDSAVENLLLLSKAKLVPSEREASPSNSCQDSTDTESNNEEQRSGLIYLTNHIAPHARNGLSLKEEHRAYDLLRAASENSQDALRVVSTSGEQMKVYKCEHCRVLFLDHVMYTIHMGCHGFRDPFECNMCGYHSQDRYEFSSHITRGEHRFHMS
T1 sequence (Q96SW2 whole entry): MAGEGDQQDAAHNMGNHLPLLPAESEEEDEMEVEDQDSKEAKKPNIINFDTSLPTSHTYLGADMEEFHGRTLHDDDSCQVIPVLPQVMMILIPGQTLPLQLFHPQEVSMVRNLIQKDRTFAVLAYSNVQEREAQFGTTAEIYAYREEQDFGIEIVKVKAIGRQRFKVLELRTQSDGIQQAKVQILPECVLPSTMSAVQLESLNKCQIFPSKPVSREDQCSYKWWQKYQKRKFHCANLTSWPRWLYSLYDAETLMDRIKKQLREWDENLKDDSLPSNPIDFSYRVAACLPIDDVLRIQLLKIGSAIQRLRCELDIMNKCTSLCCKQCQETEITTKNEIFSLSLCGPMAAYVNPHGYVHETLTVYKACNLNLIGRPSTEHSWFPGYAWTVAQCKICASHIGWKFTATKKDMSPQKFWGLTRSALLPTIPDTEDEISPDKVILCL
T1 sequence (Q16531 whole entry partner): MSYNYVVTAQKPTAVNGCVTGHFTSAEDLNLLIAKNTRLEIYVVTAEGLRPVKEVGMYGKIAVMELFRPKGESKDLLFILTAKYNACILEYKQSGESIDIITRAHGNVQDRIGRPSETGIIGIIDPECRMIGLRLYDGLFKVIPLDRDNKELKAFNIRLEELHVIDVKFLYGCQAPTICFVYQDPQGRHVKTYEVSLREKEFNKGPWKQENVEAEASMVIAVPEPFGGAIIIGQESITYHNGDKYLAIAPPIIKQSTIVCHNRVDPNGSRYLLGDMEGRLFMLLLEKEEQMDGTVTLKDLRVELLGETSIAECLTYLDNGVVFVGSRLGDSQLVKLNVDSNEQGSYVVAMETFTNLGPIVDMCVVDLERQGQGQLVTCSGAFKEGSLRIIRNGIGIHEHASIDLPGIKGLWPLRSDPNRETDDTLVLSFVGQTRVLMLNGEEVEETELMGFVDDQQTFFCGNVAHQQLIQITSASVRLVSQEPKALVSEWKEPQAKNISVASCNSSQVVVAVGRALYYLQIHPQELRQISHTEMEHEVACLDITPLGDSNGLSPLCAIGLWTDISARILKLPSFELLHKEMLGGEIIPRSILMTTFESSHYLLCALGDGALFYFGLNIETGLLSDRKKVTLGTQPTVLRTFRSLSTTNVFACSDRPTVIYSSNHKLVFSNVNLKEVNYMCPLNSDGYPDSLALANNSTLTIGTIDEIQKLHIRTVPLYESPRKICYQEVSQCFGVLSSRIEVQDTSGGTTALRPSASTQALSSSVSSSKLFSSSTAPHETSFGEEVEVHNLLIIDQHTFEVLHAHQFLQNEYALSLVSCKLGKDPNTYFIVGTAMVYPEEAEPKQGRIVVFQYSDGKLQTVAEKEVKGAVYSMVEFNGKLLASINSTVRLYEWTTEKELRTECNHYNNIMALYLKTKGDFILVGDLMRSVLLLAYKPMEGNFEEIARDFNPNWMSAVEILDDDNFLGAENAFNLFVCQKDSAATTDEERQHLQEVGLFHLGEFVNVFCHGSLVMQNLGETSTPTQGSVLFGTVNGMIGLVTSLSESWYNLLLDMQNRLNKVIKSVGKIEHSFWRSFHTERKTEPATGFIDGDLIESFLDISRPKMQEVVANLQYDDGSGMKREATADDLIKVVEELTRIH

[2] = target: GSPT1 (Homo sapiens, UniProt P15170+Q96SW2); assay: Flow cytometry for measuring degradation, HEK293T GFP-POI reporter cells (GSPT1); assay type: cell-based; parameters: expressed in transfected cells; host or cells: HEK293T; conditions: for GSPT1% degradation at 100 nM / GSPT1% degradation at 1 μM: 24 h, HEK293T GFP reporter; for Dmax: HEK-293T, Table 3
GSPT1, sequence (P15170 whole entry): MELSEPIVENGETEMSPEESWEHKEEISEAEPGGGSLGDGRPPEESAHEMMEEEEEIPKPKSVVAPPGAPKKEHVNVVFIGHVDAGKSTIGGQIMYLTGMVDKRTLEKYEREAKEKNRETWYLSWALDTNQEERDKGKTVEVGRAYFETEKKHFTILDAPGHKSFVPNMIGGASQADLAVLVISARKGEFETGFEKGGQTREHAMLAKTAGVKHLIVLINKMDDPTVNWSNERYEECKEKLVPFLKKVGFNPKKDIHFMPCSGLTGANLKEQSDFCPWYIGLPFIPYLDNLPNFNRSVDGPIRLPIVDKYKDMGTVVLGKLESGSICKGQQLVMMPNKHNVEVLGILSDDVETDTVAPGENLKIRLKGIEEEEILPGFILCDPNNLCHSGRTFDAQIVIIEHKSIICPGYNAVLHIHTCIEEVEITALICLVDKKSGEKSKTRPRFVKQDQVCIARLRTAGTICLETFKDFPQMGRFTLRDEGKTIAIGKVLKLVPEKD
GSPT1, sequence (Q96SW2 whole entry): as the sequence (Q96SW2 whole entry) above
GSPT1, sequence (Q16531 whole entry partner): as the sequence (Q16531 whole entry partner) above

[3] = target: T2, IKZF2 (Homo sapiens, UniProt Q96SW2+Q9UKS7); assay: Flow cytometry for measuring degradation, HEK293T GFP-POI reporter cells (IKZF2); assay type: cell-based; conditions: for IKZF2% degradation at 100 nM / IKZF2% degradation at 1 μM: 24 h, HEK293T GFP reporter; for Dmax: HEK-293T; for Dmax / DC50: Table 3
T2 construct: expressed in transfected cells; host or cells: HEK293T (lentiviral transduction, puromycin selection, FACS sorting)
T2 sequence (Q9UKS7 whole entry): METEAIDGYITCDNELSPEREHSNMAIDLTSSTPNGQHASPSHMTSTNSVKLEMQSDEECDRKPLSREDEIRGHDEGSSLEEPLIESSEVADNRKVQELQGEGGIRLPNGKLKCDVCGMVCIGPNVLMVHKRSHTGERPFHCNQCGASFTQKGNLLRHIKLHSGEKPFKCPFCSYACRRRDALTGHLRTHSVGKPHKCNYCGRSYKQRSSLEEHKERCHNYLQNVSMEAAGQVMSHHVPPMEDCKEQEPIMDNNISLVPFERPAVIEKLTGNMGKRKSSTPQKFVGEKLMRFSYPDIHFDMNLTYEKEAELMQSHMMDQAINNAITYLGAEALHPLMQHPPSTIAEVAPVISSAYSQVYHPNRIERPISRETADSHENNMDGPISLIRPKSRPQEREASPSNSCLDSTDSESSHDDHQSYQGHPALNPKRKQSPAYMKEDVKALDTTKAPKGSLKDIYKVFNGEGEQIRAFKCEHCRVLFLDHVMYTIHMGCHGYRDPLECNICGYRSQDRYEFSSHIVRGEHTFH
T2 sequence (Q96SW2 whole entry): as the sequence (Q96SW2 whole entry) above
T2 sequence (Q16531 whole entry partner): as the sequence (Q16531 whole entry partner) above

[4] = target: T3, CK1α (Homo sapiens, UniProt P48729+Q96SW2); assay: Flow cytometry for measuring degradation, HEK293T GFP-POI reporter cells (CK1α); assay type: cell-based; conditions: for CK1α % degradation at 100 nM / CK1α % degradation at 1 μM: 24 h, HEK293T GFP reporter; for Dmax: CK1, read-out: Dmax CK1a (%); for Dmax / DC50: Table 3; for DC50: read-out: DC50 CK1a
T3 construct: expressed in transfected cells; host or cells: HEK293T (lentiviral transduction, puromycin selection, FACS sorting)
T3 sequence (P48729 whole entry): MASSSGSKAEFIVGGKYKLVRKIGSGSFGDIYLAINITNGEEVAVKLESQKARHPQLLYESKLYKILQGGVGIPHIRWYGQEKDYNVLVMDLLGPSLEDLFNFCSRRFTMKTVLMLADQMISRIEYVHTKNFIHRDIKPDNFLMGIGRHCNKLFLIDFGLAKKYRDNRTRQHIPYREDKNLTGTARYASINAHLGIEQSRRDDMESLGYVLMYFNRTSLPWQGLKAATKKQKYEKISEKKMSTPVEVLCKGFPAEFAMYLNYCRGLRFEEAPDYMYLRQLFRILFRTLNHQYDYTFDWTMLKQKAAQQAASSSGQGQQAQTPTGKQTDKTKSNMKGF
T3 sequence (Q96SW2 whole entry): as the sequence (Q96SW2 whole entry) above
T3 sequence (Q16531 whole entry partner): as the sequence (Q16531 whole entry partner) above

[5] = In vitro solubility in DMSO; assay type: physicochemical; conditions: DMSO, organic solvent or mixture

SMILES | IKZF1% degradation at 100 nM [1] [%] | IKZF1% degradation at 1 μM [1] [%] | GSPT1% degradation at 100 nM [2] [%] | GSPT1% degradation at 1 μM [2] [%] | IKZF2% degradation at 100 nM [3] [%] | IKZF2% degradation at 1 μM [3] [%] | CK1α % degradation at 100 nM [4] [%] | CK1α % degradation at 1 μM [4] [%] | solubility [5] [mM] | Dmax [1] [%] | Dmax [2] [%] | Dmax [3] [%] | DC50 [3] [µM] | Dmax [4] [%] | DC50 [4] [µM]
COc1cc(C(=O)Nc2ccc3c(c2)CN(C2CCC(=O)NC2=O)C3=O)ccc1Oc1ccccc1 (centres unmarked) [DEG-76, N-(2-(2,6-dioxopiperidin-3-yl)-1-oxoisoindolin-5-yl)-3-methoxy-4-phenoxybenzamide] | 8.7 ± 1.8 | 17.2 ± 1.2 | 12.1 ± 0.5 | 21.3 ± 1.7 | 81.8 ± 0.4 | 92.8 ± 0 | 64.1 ± 0.8 | 69.9 ± 0.5 | – | – | – | – | – | – | –
COc1ccc2c(c1)C=C(C(=O)Nc1ccc3c(c1)CN(C1CCC(=O)NC1=O)C3=O)CO2 (centres unmarked) [DEG-78, N-(2-(2,6-dioxopiperidin-3-yl)-1-oxoisoindolin-5-yl)-6-methoxy-2H-chromene-3-carboxamide] | 15.7 ± 1.1 | 33.9 ± 0.9 | 9.2 ± 0.8 | 14.4 ± 0.5 | 75 ± 0.8 | 90.3 ± 0 | 65.5 ± 1.3 | 69.5 ± 1.4 | – | – | – | – | – | – | –
COc1cccc2c1C=C(C(=O)Nc1ccc3c(c1)CN(C1CCC(=O)NC1=O)C3=O)CO2 (centres unmarked) [DEG-79, N-(2-(2,6-dioxopiperidin-3-yl)-1-oxoisoindolin-5-yl)-5-methoxy-2H-chromene-3-carboxamide] | 39.4 ± 0.8 | 70.3 ± 0.2 | 24 ± 1 | 44.3 ± 1.3 | 74.6 ± 0.3 | 93 ± 0.1 | 59.4 ± 1 | 38.1 ± 3.4 | – | – | – | – | – | – | –
Cc1ccc2c(c1)OCC(C(=O)Nc1ccc3c(c1)CN(C1CCC(=O)NC1=O)C3=O)=C2 (centres unmarked) [DEG-80, N-(2-(2,6-dioxopiperidin-3-yl)-1-oxoisoindolin-5-yl)-7-methyl-2H-chromene-3-carboxamide] | 8.6 ± 0.1 | 24 ± 0.1 | 14.3 ± 2.1 | 28 ± 0.8 | 72.6 ± 0.9 | 91.5 ± 0.2 | 63.5 ± 1.5 | 66.9 ± 1.1 | – | – | – | – | – | – | –
O=C1CCC(N2Cc3cc(NC(=O)C4=Cc5ccc(C(F)(F)F)cc5OC4)ccc3C2=O)C(=O)N1 (centres unmarked) [DEG-81, N-(2-(2,6-dioxopiperidin-3-yl)-1-oxoisoindolin-5-yl)-7-(trifluoromethyl)-2H-chromene-3-carboxamide] | 8 ± 0.5 | 17.4 ± 3.3 | 2.8 ± 0.8 | 11.9 ± 1.9 | 75.1 ± 0.5 | 91.8 ± 0.1 | 66.3 ± 2 | 72 ± 0.3 | – | – | – | – | – | – | –
O=C1CCC(N2Cc3cc(NC(=O)C4=Cc5ccc(OC(F)(F)F)cc5OC4)ccc3C2=O)C(=O)N1 (centres unmarked) [DEG-82, N-(2-(2,6-dioxopiperidin-3-yl)-1-oxoisoindolin-5-yl)-7-(trifluoromethoxy)-2H-chromene-3-carboxamide] | 10.6 ± 1.2 | 19.9 ± 0.3 | 6.1 ± 0.3 | 12.3 ± 0.9 | 85.4 ± 0 | 93.3 ± 0.1 | 58 ± 2.2 | 62.7 ± 1.4 | – | – | – | – | – | – | –
O=C1CCC(N2Cc3cc(NC(=O)C4=Cc5ccc(Br)cc5OC4)ccc3C2=O)C(=O)N1 (centres unmarked) [DEG-83, 7-bromo-N-(2-(2,6-dioxopiperidin-3-yl)-1-oxoisoindolin-5-yl)-2H-chromene-3-carboxamide] | 12.9 ± 1 | 47.5 ± 0.2 | 21.8 ± 2.3 | 49 ± 0.8 | 80.4 ± 0.5 | 94.4 ± 0.2 | 61.9 ± 0.4 | 30.2 ± 2.3 | – | – | – | – | – | – | –
COc1cc(Br)cc2c1OCC(C(=O)Nc1ccc3c(c1)CN(C1CCC(=O)NC1=O)C3=O)=C2 (centres unmarked) [DEG-84, 6-bromo-N-(2-(2,6-dioxopiperidin-3-yl)-1-oxoisoindolin-5-yl)-8-methoxy-2H-chromene-3-carboxamide] | 12.6 ± 0.5 | 26.1 ± 0.5 | 1.6 ± 1.1 | 4.1 ± 2.6 | 74.4 ± 0.4 | 87.8 ± 0.2 | 64.7 ± 0.1 | 68 ± 1.8 | – | – | – | – | – | – | –
O=C1CCC(N2Cc3cc(NC(=O)C4=Cc5cc(Br)cc(Br)c5OC4)ccc3C2=O)C(=O)N1 (centres unmarked) [DEG-86, 6,8-dibromo-N-(2-(2,6-dioxopiperidin-3-yl)-1-oxoisoindolin-5-yl)-2H-chromene-3-carboxamide] | 12.3 ± 0.9 | 22.6 ± 0.5 | 5.3 ± 2 | 9.2 ± 0.7 | 48.7 ± 1.1 | 62.6 ± 0.5 | 46.5 ± 2.5 | 54.7 ± 1.2 | – | – | – | – | – | – | –
O=C1CCC(N2Cc3cc(NC(=O)c4ccc5c(c4)CCCC5)ccc3C2=O)C(=O)N1 (centres unmarked) [DEG-87, N-(2-(2,6-dioxopiperidin-3-yl)-1-oxoisoindolin-5-yl)-5,6,7,8-tetrahydronaphthalene-2-carboxamide] | 15.5 ± 1 | 27.2 ± 0.7 | 1.2 ± 2.5 | 4 ± 0.6 | 74 ± 0.5 | 89.1 ± 0.4 | 51.1 ± 1.2 | 56.9 ± 0.8 | – | – | – | – | – | – | –
O=C1CCC(N2Cc3cc(NC(=O)c4ccc5cc(O)ccc5c4)ccc3C2=O)C(=O)N1 (centres unmarked) [DEG-90, N-(2-(2,6-dioxopiperidin-3-yl)-1-oxoisoindolin-5-yl)-6-hydroxy-2-naphthamide] | 6 ± 0.1 | 6.3 ± 1.6 | −1.9 ± 1.4 | 7.8 ± 1.4 | 60 ± 1 | 89 ± 0.2 | 54.5 ± 0.6 | 71.1 ± 0.6 | – | – | – | – | – | – | –
N#Cc1ccc2cc(C(=O)Nc3ccc4c(c3)CN(C3CCC(=O)NC3=O)C4=O)ccc2c1 (centres unmarked) [DEG-91, 6-cyano-N-(2-(2,6-dioxopiperidin-3-yl)-1-oxoisoindolin-5-yl)-2-naphthamide] | 8.5 | 14.4 | 9.7 | 11.5 | 89.4 | 95.3 | 74.6 | 80.3 | > 100 | 20.6 | 14.8 | 96.6 | 0.007 | 81.2 | 0.0026
COCOc1ccc2cc(C(=O)Nc3ccc4c(c3)CN(C3CCC(=O)NC3=O)C4=O)ccc2c1 (centres unmarked) [DEG-92, N-(2-(2,6-dioxopiperidin-3-yl)-1-oxoisoindolin-5-yl)-6-(methoxymethoxy)-2-naphthamide] | 6.7 | 8.3 | 5.3 | 5.0 | 87.6 | 94.5 | 76.2 | 80.1 | > 100 | 14.5 | 12.8 | 95.9 | 0.0079 | 80.2 | 0.0029
CS(=O)(=O)c1ccc2cc(C(=O)Nc3ccc4c(c3)CN(C3CCC(=O)NC3=O)C4=O)ccc2c1 (centres unmarked) [DEG-93, N-(2-(2,6-dioxopiperidin-3-yl)-1-oxoisoindolin-5-yl)-6-(methylsulfonyl)-2-naphthamide] | 4.9 | 7.0 | 7.8 | 10.6 | 56.0 | 87.7 | 60.2 | 74.6 | – | 10.4 | 14.6 | 95.1 | 0.0731 | 78.9 | 0.0211
CN1C(=O)COc2cc(C(=O)Nc3ccc4c(c3)CN(C3CCC(=O)NC3=O)C4=O)ccc21 (centres unmarked) [DEG-94, N-(2-(2,6-dioxopiperidin-3-yl)-1-oxoisoindolin-5-yl)-4-methyl-3-oxo-3,4-dihydro-2H-benzo[b][1,4]oxazine-7-carboxamide] | 8.7 | 20.8 | 9.3 | 13.2 | 51.8 | 85.2 | 51.3 | 71.5 | – | 30.5 | 13.7 | 92.8 | 0.0788 | 76.7 | 0.0425
